Where a name gives a salt, the structure may show the parent alone. Read-outs that look alike come from different tables or passages of the source.

Data set [1] deals with T1, muscarinischen Rezeptoren (Herz) (Rattus norvegicus, UniProt P10980).
T1 construct: Das Gesamtherz wurde mit einer Schere zerkleinert; Alle Organe wurden abschließend in einem Potter homogenisiert; from tissue; host or cells: rat whole heart homogenate
T1 sequence (P10980 1-466): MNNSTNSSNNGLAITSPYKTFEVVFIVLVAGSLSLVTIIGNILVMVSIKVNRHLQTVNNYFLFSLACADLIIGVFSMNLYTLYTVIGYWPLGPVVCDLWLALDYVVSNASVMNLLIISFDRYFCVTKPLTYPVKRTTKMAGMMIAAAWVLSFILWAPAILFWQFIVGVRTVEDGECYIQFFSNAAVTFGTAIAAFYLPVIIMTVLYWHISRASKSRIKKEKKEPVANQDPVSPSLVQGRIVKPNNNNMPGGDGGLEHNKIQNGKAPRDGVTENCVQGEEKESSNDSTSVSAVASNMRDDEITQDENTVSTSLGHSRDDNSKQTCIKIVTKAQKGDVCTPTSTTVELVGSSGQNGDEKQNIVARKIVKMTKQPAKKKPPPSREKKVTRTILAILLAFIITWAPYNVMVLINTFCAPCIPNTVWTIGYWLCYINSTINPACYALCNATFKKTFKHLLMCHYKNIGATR
Description: biochemical. To be noted: whole heart homogenate 1:400, 0,3 nmolar 3H-NMS, 30°C, 45 min; read-out: Rezeptor-Bindungs-Tests -log IC50 Herz (converted). It counts as binding, Ratte. The text has this:
Als Organspender dienten männliche Sprague-Dawley-Ratten mit 180-220 g Körpergewicht. Nach Entnahme von Herz und Submandibularis wurden alle weiteren Schritte in eiskaltem Hepes-HCI-Puffer (pH 7,4; 100 m molar NaCI, 10 m molar MgCI2) vorgenommen. Das Gesamtherz wurde mit einer Schere zerkleinert. Alle Organe wurden abschließend in einem Potter homogenisiert.
Für den Bindungstest wurden die Organhomogenate in folgender Weise verdünnt: • Gesamtherz 1:400 • Submandibularis 1:400
Die Inkubation der Organhomogenate erfolgte bei einer bestimmten Konzentration des Radioliganden und einer Konzentrationsreihe der nichtradioaktiven Testsubstanzen im Eppendorf-Zentrifugenröhrchen bei 30°C. Die Inkubationsdauer betrug 45 Minuten. Als Radioligand wurde 0,3 nmolar ^3H-N-Methylscopolamin (^3H-NMS) verwendet. Die Inkubation wurde durch Zugabe von eiskaltem Puffer mit nachfolgender Vakuumfiltration beendet. Die Filter wurden mit kaltem Puffer gespült und ihre Radioaktivität bestimmt. Sie repräsentiert die Summe von spezifischer und unspezifischer Bindung von ^3H-NMS. Der Anteil der unspezifischen Bindung wurde definiert als jene Radioaktivität die in Anwesenheit von 1 u. molar Quinciidinylbenzilat gebunden wurde. Es wurden immer Vierfachbestimmungen vorgenommen. Die ICso-Werte der nicht markierten Testsubstanzen wurden graphisch bestimmt. Sie repräsentieren jene Konzentration der Testsubstanz, bei welcher die spezifische Bindung von ^3H-NMS an die muscarinischen Rezeptoren in den verschiedenen Organen um 50 % gehemmt wurde.

For data set [2], the system named is M2. Briefly: M2 activity in the rat: inhibition of bradycardia induced by vagus stimulation. The data set is classed as in vivo, Ratte. To be noted: i.v.; dose reducing vagal bradycardia by 50%; 5 min after injection. The procedure:
(§1) Die angewandte Methode wurde von Hammer und Giachetti (Life Sciences 31, 2991-2998 (1982)) beschrieben. 5 Minuten nach intravenöser Injektion steigender Dosen der Substanz wurden entweder der rechte Vagus elektrisch stimuliert (Frequenz: 25 Hz; Pulsbreite: 2ms; Reizdauer: 30s; Voltzahl: supramaximal) oder 0,3 mg/kg McN-A-343 in männliche THOM-Ratten intravenös injiziert. Die durch Vagusstimulation hervorgerufene Bradykardie und der durch McN-A-343 verursachte Blutdruckanstieg wurden bestimmt. Die Dosis der Substanzen, die entweder die vagale Bradykardie (M2) oder den Blutdruckanstieg (Mi) um 50% verminderte, wurde graphisch ermittelt. Ergebnisse siehe Tabelle II.

Data set [3] concerns M1. Briefly: M1 activity in the rat: inhibition of blood pressure rise caused by McN-A-343. The data set is classed as in vivo, Ratte. As to conditions: i.v.; dose reducing McN-A-343 (0,3 mg/kg) blood pressure rise by 50%; 5 min. The procedure: as §1
In data set [4] the test system is Speichelsekretion. Description: Inhibition of pilocarpine-induced salivation in the rat. The data set is classed as in vivo, Ratte. As to conditions: for ED50: Rattus norvegicus, iv, dose reducing saliva volume by 50%, pilocarpine 2 mg/kg s.c., read-out: Speichelsekretionshemmung (Ratte) ED50; for Verhältnis Speichelsekretionshemmung zu M2-Aktivität: ratio of ED50 salivation inhibition to ED50 M2 activity, rat. As to the method: Nach Lavy und Mulder (Arch. int. Pharmacodyn. 178, 437-445, (1969)) erhielten mit 1,2 g/kg Urethan narkotisierte männliche THOM-Ratten steigende Dosen der Substanz i.v.. Die Speichelsekretion wurde durch s.c. Gabe von 2 mg/kg Pilocarpin ausgelöst. Der Speichel wurde mit Fließpapier aufgesaugt, die von ihm eingenommene Fläche alle 5 Minuten planimetrisch bestimmt. Die Dosis der Substanz, die das Speichelvolumen um 50% verminderte, wurde graphisch ermittelt. Ergebnisse siehe Tabelle 11.

The target of data set [5] is T2, muskarinischen Rezeptoren (Atrium) (Rattus norvegicus, UniProt P10980).
T2 construct: wurden die Tiere getötet, das Herz, die Bronchien und die Tränendrüsen entnommen; from tissue; host or cells: rat heart (atrium, ventricle), in vivo labelling with 3H-NMS
T2 sequence (P10980 1-466): T1 sequence (P10980 1-466)
Briefly: Receptor binding test in vivo (3H-NMS), heart atrium. As to conditions: rat, iv, 0.5 h; read-out: ID50 Herz Atrium. Also on record: species or system Ratten. The text has this:
Für diese Experimente wurden weibliche Ratten mit einem Körpergewicht von ca. 200 g verwendet. Vor Versuchsbeginn wurden die Tiere mit einer Dosis von 1,25 g/kg Urethan narkotisiert. Die Tiere erhielten jeweils die vorgesehene Dosis der Prüfsubstanz durch i.v. Injektion. […] Nach weiteren 15 Minuten wurden die Tiere getötet, das Herz, die Bronchien und die Tränendrüsen entnommen. Diese Organe wurden in Soluene R aufgelöst und die Radioaktivität bestimmt. Diese Messwerte wurden als Totalbindung angenommen. […] Aus diesen Versuchen wurden für die einzelnen Organe IDso-Werte ermittelt. Die IDso-Werte sind Dosen der Prüfsubstanzen, die 50% der spezifischen Bindung von ^3H-NMS an die muskarinischen Rezeptoren der jeweiligen Organe hemmten.

The subject of data set [6] is Acetylcholinwirkung auf Herzfrequenz. Description: Inhibition of the acetylcholine effect on heart rate. To be noted: Cavia porcellus, 5 min; anaesthetised guinea pig, acetylcholine 5 min after test substance, heart rate. It counts as in vivo, Meerschweinchen. The source says:
(§2) Dabei wurde die Herzfrequenz durch extrakorporale Ableitung des EKG, der Ausatemwiderstand nach Konzett-Rößler und die Kontraktion […] an den untersuchten Organen wurden Dosis-Wirkungskurven aufgenommen und daraus -log EDso-Werte bestimmt. Ergebnisse siehe Tabelle V.

The test system of data set [7] is Acetylcholinwirkung auf Bronchien. Description: Inhibition of the acetylcholine effect on bronchi. It counts as in vivo, Meerschweinchen. To be noted: Cavia porcellus, 5 min; anaesthetised guinea pig, acetylcholine 5 min after test substance, expiratory resistance; read-out: -log ED50 Bronchien (converted).
From the text: as §2

Data set [8] has as its system Acetylcholinwirkung auf Blase. Briefly: Inhibition of the acetylcholine effect on bladder. The data set is classed as in vivo, Meerschweinchen. As to conditions: Cavia porcellus, 5 min; anaesthetised guinea pig, acetylcholine 5 min after test substance, bladder contraction; read-out: -log ED50 Blase (converted).
From the text: as §2

The nature of data set [9]: Solubility in water. The data set is classed as physicochemical. As to conditions: for Löslichkeit in Wasser: result in words; for solubility: water, read-out: Löslichkeit in Wasser.
Data set [10] has as its target muskarinischen Rezeptoren (Tränendrüsen) (Rattus norvegicus, UniProt P08483). Briefly: in vivo. As to conditions: iv, 0.5 h, read-out: ID50 Tränendrüsen.

muskarinischen Rezeptoren (Tränendrüsen), sequence (P08483 whole entry): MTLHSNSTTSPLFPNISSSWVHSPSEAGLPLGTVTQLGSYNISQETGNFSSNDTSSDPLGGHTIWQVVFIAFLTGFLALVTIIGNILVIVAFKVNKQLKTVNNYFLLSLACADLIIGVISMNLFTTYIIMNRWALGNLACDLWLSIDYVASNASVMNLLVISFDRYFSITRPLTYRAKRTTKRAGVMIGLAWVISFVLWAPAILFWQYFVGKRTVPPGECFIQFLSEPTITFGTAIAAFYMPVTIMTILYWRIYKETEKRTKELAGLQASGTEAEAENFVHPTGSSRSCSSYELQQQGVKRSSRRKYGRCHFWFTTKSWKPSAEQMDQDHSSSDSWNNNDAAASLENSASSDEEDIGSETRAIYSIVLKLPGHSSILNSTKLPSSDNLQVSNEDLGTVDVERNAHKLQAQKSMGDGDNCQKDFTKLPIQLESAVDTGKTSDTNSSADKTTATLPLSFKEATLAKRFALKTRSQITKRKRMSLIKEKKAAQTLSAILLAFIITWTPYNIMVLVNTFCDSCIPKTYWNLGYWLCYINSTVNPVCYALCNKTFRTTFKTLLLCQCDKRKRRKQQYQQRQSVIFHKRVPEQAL

The term IC50 denotes the concentration needed to halve the response being measured. `O=C1Nc2cccnc2N(C(=O)N2CCCC(CCCN3CCCCC3)C2)c2ccccc21` (stereo not drawn) [A, 5,11-Dihydro-11-[[3-[3-(1-piperidinyl)propyl]-1-piperidinyl]carbonyl]-6H-pyrido[2,3-b][1,4]-benzodiazepin-6-on]: the IC50 in data set [1] was 2 nM. In addition, the “M2-Aktivität (Ratte) ED50” value in data set [2] is 6,9 µg/kg. Further, the “M1-Aktivität (Ratte) ED50” value in data set [3] is given as 49 µg/kg. Moreover, the ED50 was 0.035 mg/kg in data set [4]; 0.01 mg/kg in data set [5]; 0.0871 µmol/kg in data set [6]; 0.117 µmol/kg in data set [7]; 1.35 µmol/kg in data set [8]; 0.2 mg/kg in data set [10]. The “Verhältnis Speichelsekretionshemmung zu M2-Aktivität” value in data set [4] turned out to be 5. Moreover, the “Löslichkeit in Wasser” value in data set [9] (methanesulfonate salt) is recorded as “leicht löslich”. The solubility is about 2000 µg/mL in data set [9] (hydrochloride salt) and about 10000 µg/mL in data set [9] (salt with N-Cyclohexylsulfamidsäure).
As for `Cl.O=C1Nc2cccnc2N(C(=O)N2CCCC(CCCN3CCCC3)C2)c2ccccc21` (stereo not drawn) [B, 5,11-Dihydro-11-[[3-[3-(1-pyrrolidinyl)propyl]-1-piperidinyl]carbonyl]-6H-pyrido[2,3-b][1,4]-benzodiazepin-6-on-hydrochlorid], the half-maximal inhibitory concentration (IC50) in [1] was 10 nM. In addition, the ED50 is 0.0661 µmol/kg in [6], 0.0871 µmol/kg in [7] and 0.692 µmol/kg in data set [8]. Further, the solubility in data set [9] (hydrochloride salt) is about 3000 µg/mL.
`CCN(CC)CCCCC1CCCCN1C(=O)N1c2ccccc2C(=O)Nc2cccnc21` (stereo not drawn) [Beispiel 4, 11-[[2-[4-(Diethyiamino)butyl]-1-piperidinyl]carbonyl]-5,11-dihydro-6H-pyrido[2,3-b][1,4]benzodiazepin-6-on]: in data set [9] (dihydrochloride), the “Löslichkeit in Wasser” value was “wasserlösliche”.
Turning to `CS(=O)(=O)O.O=C1Nc2cccnc2N(C(=O)N2CCCC(CCN3CCCCC3)C2)c2ccccc21` (stereo not drawn) [C, 5,11-Dihydro-11-[[3-[2-(1-piperidinyl)ethyl]-1-piperidinyl]carbonyl]-6H-pyrido[2,3-b][1,4]-benzodiazepin-6-on-methansulfonat], the concentration for half-maximal inhibition (IC50) in data set [1] is 3.02 nM. Besides, the “M2-Aktivität (Ratte) ED50” value in [2] is 7,6 µg/kg. Moreover, the “M1-Aktivität (Ratte) ED50” value in data set [3] was found to be 39 µg/kg. The ED50 in data set [4] was 0.058 mg/kg; in data set [6] it was 0.0427 µmol/kg; in data set [7], 0.0417 µmol/kg; in [8], 0.355 µmol/kg. The “Verhältnis Speichelsekretionshemmung zu M2-Aktivität” value in data set [4] is recorded as 7,6.
As to `O=C1Nc2cccnc2N(C(=O)N2CCCC(CCN3CCCC3)C2)c2ccccc21` (stereo not drawn) [D, 5,11-Dihydro-11-[[3-(2-(1-pyrrolidinyl)ethyl]-1-piperidinyl]carbonyl]-6H-pyrido[2,3-b][1,4]-benzodiazepin-6-on-hydrochlorid], the IC50 in data set [1] was 6.03 nM. The results for the ED50 in [6], in data set [7] and in [8] were 0.0479 µmol/kg, 0.0324 µmol/kg and 0.708 µmol/kg, respectively.
For `CN(CCC1CCCN(C(=O)N2c3ccccc3C(=O)Nc3cccnc32)C1)C1CCCC1` (stereo not drawn) [E, 11-[[3-[2-[(Cyclopentyl)methylamino]ethyl]-1-piperidinyl]carbonyl]-5,11-dihydro-6H-pyrido[2,3-b]-[1,4]-benzodiazepin-6-on-hydrochlorid] the same measures were 3.02 nM, 0.0813 µmol/kg, 0.0977 µmol/kg and 0.891 µmol/kg.
In the case of `O=C1Nc2cccnc2N(C(=O)N2CCCC(CCN3CCCCCC3)C2)c2ccccc21` (stereo not drawn) [F, 5,11-Dihydro-11-[[3-[2-(hexahydro-1H-1-azepinyl)ethyl]-1-piperidinyl]carbonyl]-6H-pyrido[23-b]-[1,4]benzodiazepin-6-on-hydrochlorid], in data set [1], the IC50 was 3.02 nM. In addition, the values for the ED50 in data set [6], in [7] and in data set [8] were 0.0162 µmol/kg, 0.0398 µmol/kg and 0.38 µmol/kg, respectively.
Take `O=C1Nc2ccccc2N(C(=O)N2CCCC(CCN3CCCCC3)C2)c2ncccc21` (stereo not drawn) [G, 6,11-Dihydro-11-[[3-[2-(1-piperidinyl)ethyl]-1-piperidinyl]carbonyl]-5H-pyrido[23-b][1,5]-benzodiazepin-5-on]: the half-inhibitory concentration (IC50) in [1] is 3.98 nM. Besides, the “M2-Aktivität (Ratte) ED50” value in [2] is given as 8,13 µg/kg. For the same molecule, the “M1-Aktivität (Ratte) ED50” value in [3] is listed as 7,16 µg/kg. For the same molecule, the ED50 in data set [4] is 0.00683 mg/kg; in [6], 0.0148 µmol/kg; in data set [7], 0.0263 µmol/kg; in data set [8], 0.302 µmol/kg. Further, the “Verhältnis Speichelsekretionshemmung zu M2-Aktivität” value in data set [4] is reported as 20,00.
As for `CN1CCN(CC(=O)N2c3ccccc3C(=O)Nc3cccnc32)CC1` [Y, 5,11-Dihydro-11-[(4-methyl-1-piperazinyl)acetyl]-6H-pyrido[2.3-b][1,4]benzodiazepin-6-on, reference compound], the ED50 in [4] is 0.084 mg/kg; in data set [6], 1.41 µmol/kg; in [7], 0.269 µmol/kg; in [8], 4.37 µmol/kg.
